Among the data in patent US10023591B2, “Heterocyclic derivatives and use thereof” (C&C RESEARCH LABORATORIES, priority 2014, dated 2018) are IC50 values, retold here.

In assay [1] the test system is DU-145 prostate cancer cell line. Description: Cell growth inhibition assay, DU-145 (CellTiter-Glo). It counts as cell-based. The note with it: Homo sapiens; DU-145, 3,000 cells/well, 96 hours. Here is the method:
(§1) The inhibitory effects of the compounds of the present invention against the growth of cancer cells were evaluated as shown below. The cancer cell lines including prostate cancer cell lines (LNCaP, DU-145), stomach cancer cell line (NCI-N87), and breast cancer cell lines (MDA-MB-468) were cultured under the protocol provided by each supplier. A medium supplemented with 10 ng/mL of IL-6 was used for LNCaP, a prostate cancer cell line, when treated with a drug. Each type of cells to be used in experiments was sub-cultured in a 96-well plate by counting the exact number of cells using Tali™ Image-based Cytometer (Life Technologies). In a 96-well plate, DU-145 was employed with 3,000 cells/well; NCI-N87 was employed with 5,000 cells/well; and LNCaP and MDA-MB-468 were employed with 10,000 cells/well. The cells were treated with the compounds listed in Examples which were diluted in various concentrations. Upon completion of the compounds treatment, LNCaP, DU-145, NCI-N87 cells were cultured at 37° C. under 5% CO2 for 96 hours, and MDA-MB-468 cells were cultured at 37° C. in air for 96 hours. Subsequently, the cells were observed under microscope and drug precipitation and particular findings were investigated and recorded. And then, the 96-well plate was placed at room temperature for 30 minutes, added with 20 pt/well of CellTiter-Glo solution (Cat No. G7573, Promega) and shaken for 10 minutes, followed by being subjected to the measurement using PHERAstar™ microplate reader (BMG LABTECH) according to the supplier's general luminometer protocol. Wells where only culture liquid added without cell plating were used as a negative control, whereas wells where culture liquid containing 0.1% DMSO instead of the compounds listed in Examples were used as a positive control.

For assay [2], the system named is LNCaP prostate cancer cell line. Description: Cell growth inhibition assay, LNCaP (CellTiter-Glo). The conditions noted are these: Homo sapiens; LNCaP, 10,000 cells/well, medium with 10 ng/mL IL-6, 96 hours. It counts as cell-based. Here is the method: as §1
For orientation: Cellular ATP, detected with luciferase, serves as a proxy for viable cell number.

Another assay relates to STAT1. Description: STAT1 reporter gene assay (luciferase), U2OS stable cell line pGL4-STAT1-TA-luc, IFN-γ stimulation. The note with it: Homo sapiens, IFN-γ 50 ng/mL, 8 hours, read-out: IC50 (μM) pSTAT1. It counts as cell-based, human. The essentials: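 U2OS cells stably carrying a STAT1-driven luciferase reporter were treated with serially diluted compounds plus IFN-γ (50 ng/mL final) for 8 h at 37 °C in 10% FBS medium. Luciferase read after lysis; parallel plate assessed for cytotoxicity by CellTiter-Glo.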

The test system of a further assay is STAT3. Kind of assay: STAT3 reporter gene assay (luciferase), LNCaP stable cell line pSTAT3-TA-luc, IL-6 stimulation. The note with it: Homo sapiens. It counts as cell-based, human. The essentials:
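LNCaP cells stably carrying pSTAT3-TA-luc were plated 24 h in 3% DCC-FBS medium, then given compound followed by IL-6 (10 ng/mL final) for 24 h at 37 °C. Luciferase was read from lysates, with CellTiter-Glo viability on a duplicate plate. Stimulated 0.1% DMSO wells served as uninhibited control.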

In the case of `CC(C)(c1cc2cc(C(=O)Nc3cc(Cl)cc(Oc4ccc(Cl)cc4)c3)sc2cc1Cl)S(C)(=O)=O` [Example 45, 6-chloro-N-(3-chloro-5-(4-chlorophenoxy)phenyl)-5-(2-(methylsulfonyl)propan-2-yl)benzo[b]thiophene-2-carboxamide], the IC50 (usually the midpoint of a concentration-inhibition curve) in assay [1] was 0.037 µM; in assay [2] it was 0.53 µM; in the assay on STAT1 it was over 50 µM; in the assay with STAT3 it was 0.078 µM.

With `COc1cc(NC(=O)c2cc3cc(C(C)(C)S(C)(=O)=O)ccc3s2)cc(Oc2ccc(Cl)cc2)c1` [Example 46, N-(3-(4-chlorophenoxy)-5-methoxyphenyl)-5-(2-(methylsulfonyl)propan-2-yl)benzo[b]thiophene-2-carboxamide], the IC50 was 0.07 µM in assay [1], 0.11 µM in assay [2], over 50 µM in the assay with STAT1 and 0.054 µM with STAT3.

Regarding `CC(C)(c1ccc2sc(C(=O)Nc3cc(Cl)cc(Oc4cc(F)cc(Cl)c4)c3)cc2c1)S(C)(=O)=O` [Example 47, N-(3-chloro-5-(3-chloro-5-fluorophenoxy)phenyl)-5-(2-(methylsulfonyl)propan-2-yl)benzo[b]thiophene-2-carboxamide], the IC50 was 0.016 µM in assay [1], 0.02 µM in assay [2], over 50 µM with STAT1 and 0.022 µM in the assay with STAT3.

With `CC(C)(c1ccc2sc(C(=O)Nc3cc(Cl)cc(Oc4cccc(OC(F)(F)F)c4)c3)cc2c1)S(C)(=O)=O` [Example 48, N-(3-chloro-5-(3-(trifluoromethoxy)phenoxy)phenyl)-5-(2-(methylsulfonyl)propan-2-yl)benzo[b]thiophene-2-carboxamide], the IC50 in assay [1] was 0.008 µM; in assay [2], 0.01 µM; in the assay with STAT1 it was over 50 µM; in the assay on STAT3, 0.014 µM.

As for `CC(C)(c1ccc2sc(C(=O)Nc3cc(Cl)cc(Oc4ccc(Cl)cc4)c3)cc2c1)S(C)(=O)=O` [Example 49, N-(3-chloro-5-(4-chlorophenoxy)phenyl)-5-(2-(methylsulfonyl)propan-2-yl)benzo[b]thiophene-2-carboxamide], the IC50 was 0.013 µM in assay [1], 0.019 µM in assay [2], over 50 µM in the assay with STAT1 and 0.019 µM in the assay with STAT3.

As for `CC(C)(c1ccc2sc(C(=O)Nc3cc(Cl)cc(Oc4ccc(F)c(Cl)c4)c3)cc2c1)S(C)(=O)=O` [Example 51, N-(3-chloro-5-(3-chloro-4-fluorophenoxy)phenyl)-5-(2-(methylsulfonyl)propan-2-yl)benzo[b]thiophene-2-carboxamide], the IC50 in assay [1] is 0.0082 µM; in assay [2], 0.031 µM; in the assay with STAT1, over 50 µM; in the assay on STAT3, 0.022 µM.

For the molecule `CC(C)(c1ccc2sc(C(=O)Nc3cc(Cl)cc(Oc4ccc(F)c(F)c4)c3)cc2c1)S(C)(=O)=O` [Example 52, N-(3-chloro-5-(3,4-difluorophenoxy)phenyl)-5-(2-(methylsulfonyl)propan-2-yl)benzo[b]thiophene-2-carboxamide], the IC50 was 0.015 µM in assay [1], 0.022 µM in assay [2], over 50 µM in the assay on STAT1 and 0.025 µM in the assay on STAT3.

`COc1cc(F)cc(Oc2cc(Cl)cc(NC(=O)c3cc4cc(C(C)(C)S(C)(=O)=O)ccc4s3)c2)c1` [Example 53, N-(3-chloro-5-(3-fluoro-5-methoxyphenoxy)phenyl)-5-(2-(methylsulfonyl)propan-2-yl)benzo[b]thiophene-2-carboxamide]: the IC50 in assay [1] was 0.02 µM; in assay [2], 0.037 µM; in the assay with STAT1, over 50 µM; in the assay with STAT3, 0.033 µM.

In the case of `CC(C)(c1ccc2sc(C(=O)Nc3cc(Cl)cc(Oc4ccc(Cl)c(F)c4)c3)cc2c1)S(C)(=O)=O` [Example 54, N-(3-chloro-5-(4-chloro-3-fluorophenoxy)phenyl)-5-(2-(methylsulfonyl)propan-2-yl)benzo[b]thiophene-2-carboxamide], the IC50 is 0.0059 µM in assay [1], 0.029 µM in assay [2], over 50 µM in the assay on STAT1 and 0.014 µM in the assay on STAT3.

With `CS(=O)(=O)C1(c2ccc3sc(C(=O)Nc4cc(Cl)cc(Oc5ccc(Cl)cc5)c4)cc3c2)CCOCC1` [Example 56, N-(3-chloro-5-(4-chlorophenoxy)phenyl)-5-(4-(methylsulfonyl)tetrahydro-2H-pyran-4-yl)benzo[b]thiophene-2-carboxamide], the IC50 in assay [1] was over 1.1 µM; in assay [2], over 1.1 µM; in the assay on STAT1, over 50 µM; with STAT3 it was 3.3 µM.

For `CC(C)(c1ccc2cc(C(=O)Nc3cc(Cl)cc(Oc4ccc(Cl)cc4)c3)sc2c1)S(C)(=O)=O` [Example 58, N-(3-chloro-5-(4-chlorophenoxy)phenyl)-6-(2-(methylsulfonyl)propan-2-yl)benzo[b]thiophene-2-carboxamide], the concentration for half-maximal inhibition (IC50) is 0.11 µM in assay [1], 0.24 µM in assay [2], over 50 µM with STAT1 and 0.86 µM in the assay on STAT3.

`CC(C)(c1ccc2sc(C(=O)Nc3cc(Oc4ccc(Cl)cc4)cc(Cl)n3)cc2c1)S(C)(=O)=O` [Example 63, N-(6-chloro-4-(4-chlorophenoxy)pyridin-2-yl)-5-(2-(methylsulfonyl)propan-2-yl)benzo[b]thiophene-2-carboxamide]: the IC50 in assay [1] was 0.032 µM; in assay [2], 0.046 µM; with STAT1, over 50 µM; in the assay with STAT3, 0.034 µM.

Regarding `CC(C)(c1ccc2sc(C(=O)Nc3cc(Cl)cc(Oc4ccc(Cl)cc4)n3)cc2c1)S(C)(=O)=O` [Example 66, N-(4-chloro-6-(4-chlorophenoxy)pyridin-2-yl)-5-(2-(methylsulfonyl)propan-2-yl)benzo[b]thiophene-2-carboxamide], the IC50 was 0.17 µM in assay [1], 0.26 µM in assay [2], over 50 µM in the assay on STAT1 and 0.18 µM in the assay with STAT3.

In the case of `CC(C)(c1ccc(Cl)cc1)c1cc(NC(=O)c2cc3cc(C(C)(C)S(C)(=O)=O)ccc3s2)n(C(C)(C)C)n1` [Example 88, N-(1-(tert-butyl)-3-(2-(4-chlorophenyl)propan-2-yl)-1H-pyrazol-5-yl)-5-(2-(methylsulfonyl)propan-2-yl)benzo[b]thiophene-2-carboxamide], the IC50 in assay [1] was over 1.1 µM; in assay [2], over 1.1 µM; in the assay on STAT1 it was over 50 µM; with STAT3, over 10 µM.

For the molecule `CC(C)(c1ccc(Cl)cc1)c1cc(NC(=O)c2cc3cc(C(C)(C)S(C)(=O)=O)ccc3s2)[nH]n1` [Example 89, N-(3-(2-(4-chlorophenyl)propan-2-yl)-1H-pyrazol-5-yl)-5-(2-(methylsulfonyl)propan-2-yl)benzo[b]thiophene-2-carboxamide], the IC50 was 0.11 µM in assay [1], 0.24 µM in assay [2], over 50 µM in the assay with STAT1 and 0.14 µM in the assay with STAT3.

Turning to `CC1(C)CC(Oc2cc(Cl)cc(NC(=O)c3cc4cc(C(C)(C)S(C)(=O)=O)ccc4s3)c2)CC(C)(C)N1` [Example 92, N-(3-chloro-5-((2,2,6,6-tetramethylpiperidin-4-yl)oxy)phenyl)-5-(2-(methylsulfonyl)propan-2-yl)benzo[b]thiophene-2-carboxamide], the IC50 in assay [1] was over 1.1 µM; in assay [2], over 1.1 µM; in the assay on STAT1, 9.6 µM; with STAT3 it was 5.5 µM.

Take `CC(C)(C)OC(=O)NCCOc1cc(NC(=O)c2cc3cc(C(C)(C)S(C)(=O)=O)ccc3s2)cc(Oc2ccc(Cl)cc2)c1` [Example 93, tert-butyl (2-(3-(4-chlorophenoxy)-5-(5-(2-(methylsulfonyl)propan-2-yl)benzo[b]thiophene-2-carboxamido)phenoxy)ethyl)carbamate]: the IC50 in assay [1] was 0.1 µM; in assay [2], 0.26 µM; with STAT1, over 50 µM; with STAT3, 0.072 µM.

As to `CC(C)(c1ccc2sc(C(=O)Nc3cc(OCCN)cc(Oc4ccc(Cl)cc4)c3)cc2c1)S(C)(=O)=O` [Example 94, N-(3-(2-aminoethoxy)-5-(4-chlorophenoxy)phenyl)-5-(2-(methylsulfonyl)propan-2-yl)benzo[b]thiophene-2-carboxamide], the IC50 is over 1.1 µM in assay [1], over 1.1 µM in assay [2], 13.3 µM in the assay with STAT1 and 5.2 µM in the assay on STAT3.
